Test [1] deals with UISO cells (VN-MCC). Kind of test: qHTS cell viability (CellTiter-Glo, 72 h; primary and follow-up small molecule screen). It is filed as cell-based, human. (In general: In qHTS, concentration-response curves come from the screen itself.)
Test [2] concerns MCC cell lines (WAGA, MKL-1, MKL-2, MCC13, MCC26, UISO). As to the kind of experiment: qHTS cell viability, all six MCC cell lines as a group (mean AUC, MCC.avg). It is filed as cell-based, human. To be noted: mean AUC of six MCC cell lines.
Test [3] relates to VP-MCC cell lines (WAGA, MKL-1, MKL-2). As to the kind of experiment: qHTS cell viability, VP-MCC cell lines as a group (mean AUC, VP.MCC.avg). It is filed as cell-based, human. To be noted: for VP-MCC_Avg_AUC: mean AUC of VP-MCC cell lines.
Test [4] concerns MKL-2 cells (VP-MCC). As to the kind of experiment: qHTS cell viability (CellTiter-Glo, 72 h; primary and follow-up small molecule screen). It is filed as cell-based, human.
The test system of test [5] is WAGA cells (VP-MCC). The test is described as above. It is filed as cell-based, human.
Test [6] has as its system CRL-7250 cells. As to the kind of experiment: qHTS cell viability (CellTiter-Glo, 72 h; primary screen), control cell line. It is filed as cell-based.
Test [7] has as its system HACAT cells. The description is as above. It is filed as cell-based, human.
The test system of test [8] is six MCC cell lines and four control cell lines. Kind of test: qHTS cell viability, all 10 cell lines screened. It is filed as cell-based.
Test [9] has as its system HEK293T cells. Kind of test: qHTS cell viability (CellTiter-Glo, 72 h; primary screen), control cell line. It is filed as cell-based, human.
The subject of test [10] is MCC13 cells (VN-MCC). As to the kind of experiment: qHTS cell viability (CellTiter-Glo, 72 h; primary and follow-up small molecule screen). It is filed as cell-based, human.
In test [11] the test system is MCC26 cells (VN-MCC). The description is as above. It is filed as cell-based, human.
In test [12] the test system is NIH-3T3 cells. Kind of test: qHTS cell viability (CellTiter-Glo, 72 h; primary screen), control cell line. It is filed as cell-based, mouse.
In test [13] the test system is VN-MCC cell lines (MCC13, MCC26, UISO). As to the kind of experiment: qHTS cell viability, VN-MCC cell lines as a group (mean AUC, VN.MCC.avg). It is filed as cell-based, human. Particulars: for VN-MCC_Avg_AUC: mean AUC of VN-MCC cell lines.
The test system of test [14] is control cell lines (HACAT, HEK293T, CRL-7250, NIH-3T3). Kind of test: qHTS cell viability, control cell lines as a group (mean AUC, Control.avg). It is filed as cell-based. To be noted: mean AUC of control cell lines.
Test [15] has as its system MKL-1 cells (VP-MCC). Kind of test: qHTS cell viability (CellTiter-Glo, 72 h; primary and follow-up small molecule screen). It is filed as cell-based, human.
Setting [16] is: MIPE library, 11-point DRC, sheet S2E.
Setting [17] is: area under the dose-response curve, UISO cells, AUC<450 = reduced viability.
The mark [18] stands for this setting: area under the dose-response curve, MKL-2 cells, AUC<450 = reduced viability.
Where [19] appears, read: area under the dose-response curve, WAGA cells, AUC<450 = reduced viability.
The mark [20] stands for this setting: MIPE library, 11-point DRC, control cell line, sheet S2E.
[21] abbreviates: area under the dose-response curve, CRL7250 control cells, AUC<450 = reduced viability.
Where [22] appears, read: area under the dose-response curve, HACAT control cells, AUC<450 = reduced viability.
Where [23] appears, read: area under the dose-response curve, HEK293T control cells, AUC<450 = reduced viability.
Setting [24] is: area under the dose-response curve, MCC13 cells, AUC<450 = reduced viability.
[25] abbreviates: area under the dose-response curve, MCC26 cells, AUC<450 = reduced viability.
The mark [26] stands for this setting: area under the dose-response curve, NIH3T3 control cells, AUC<450 = reduced viability.
[27] abbreviates: NPC library, qHTS dose-response AUC, UISO.
[28] abbreviates: NPC library, therapeutic window: Control avg AUC minus VP-MCC avg AUC.
The mark [29] stands for this setting: NPC library, qHTS dose-response AUC, MKL2.
Setting [30] is: NPC library, qHTS dose-response AUC, WAGA.
The mark [31] stands for this setting: NPC library, qHTS dose-response AUC, CRL7250 control.
[32] abbreviates: NPC library, qHTS dose-response AUC, HACAT control.
Where [33] appears, read: NPC library, therapeutic window: Control avg AUC minus MCC avg AUC.
[34] abbreviates: NPC library, qHTS dose-response AUC, HEK293T control.
[35] abbreviates: NPC library, qHTS dose-response AUC, MCC13.
Where [36] appears, read: NPC library, qHTS dose-response AUC, MCC26.
Setting [37] is: NPC library, qHTS dose-response AUC, NIH3T3 control.
Where [38] appears, read: NPC library, therapeutic window: Control avg AUC minus VN-MCC avg AUC.
[39] abbreviates: NPC library, qHTS dose-response AUC, MKL1.

In the case of `CC(=O)SCC(Cc1ccccc1)C(=O)NCC(=O)OCc1ccccc1` (centres unmarked) [Racecadotril], the UISO_AUC came to 428.805 in [1] (setting [16]) and 451.995 in [1] (setting [17]). This molecule registered an MCC_Avg_AUC in test [2] (MIPE library, sheet S2E) of 374.417. This molecule also registered a Control-VP-MCC in [3] (MIPE library, Control AUC minus VP-MCC AUC (therapeutic window), sheet S2E) of 182.226. In [3] (MIPE library, sheet S2E), this molecule gave a VP-MCC_Avg_AUC of 289.144. Besides, the figures for the MKL2_AUC in [4] (setting [16]) and in test [4] (setting [18]) were 282.974 and 385.069, respectively. Besides, the WAGA_AUC in [5] (setting [16]) turned out to be 280.978; in test [5] (setting [19]), 389.872. The values for the CRL7250_AUC in test [6] (setting [20]) and in [6] (setting [21]) were 474.01 and 474.054, respectively. The HACAT_AUC is given as 479.748 in [7] (setting [20]) and 454.884 in test [7] (setting [22]). In [8] (MIPE library, Control AUC minus MCC AUC (therapeutic window), sheet S2E), this molecule yielded a Control-MCC of 96.952. Further, the HEK293T_AUC came to 456.066 in test [9] (setting [20]) and 472.387 in [9] (setting [23]). In addition, the MCC13_AUC in [10] (setting [16]) is 461.58; in [10] (setting [24]), 485.077. Moreover, the MCC26_AUC in [11] (setting [16]) is reported as 488.688; in [11] (setting [25]), 492.456. Further, the NIH3T3_AUC in test [12] (setting [20]) was found to be 475.653; in test [12] (setting [26]), 480.677. In test [13] (MIPE library, Control AUC minus VN-MCC AUC (therapeutic window), sheet S2E), this molecule displayed a Control-VN-MCC of 11.6784. In test [13] (MIPE library, sheet S2E), this molecule displayed a VN-MCC_Avg_AUC of 459.691. This molecule gave a Control_Avg_AUC in test [14] (MIPE library, sheet S2E) of 471.369. Moreover, the MKL1_AUC in test [15] (setting [16]) was 303.479; in [15] (area under the dose-response curve, MKL-1 cells, AUC<450 = reduced viability), 393.26.
As to `CCCC(=O)OC[C@@H](OC(=O)CCC)[C@@H](OC(=O)CCC)[C@H](Cn1c2nc(=O)[nH]c(=O)c-2nc2cc(C)c(C)cc21)OC(=O)CCC` [Riboflavin tetrabutyrate], the UISO_AUC in test [1] (setting [27]) and in test [1] (setting [17]) was 492.96 in each case. In addition, in [2] (NPC library), the MCC_Avg_AUC was found to be 456.689. Further, in test [3] (NPC library), the VP-MCC_Avg_AUC is 421.656. Moreover, the Control-VP-MCC in test [3] (setting [28]) is given as 51.0422. Moreover, the MKL2_AUC in test [4] (setting [29]) and in [4] (setting [18]) was 430.163 in each case. The WAGA_AUC in test [5] (setting [30]) and in test [5] (setting [19]) was 418.091 throughout. Also, the CRL7250_AUC in test [6] (setting [31]) and in test [6] (setting [21]) was 470.473 each time. Besides, the HACAT_AUC in test [7] (setting [32]) and in [7] (setting [22]) was 497.126 each time. This molecule came in with a Control-MCC in test [8] (setting [33]) of 16.0097. Further, the HEK293T_AUC in test [9] (setting [34]) and in test [9] (setting [23]) was 450.178 throughout. In addition, the MCC13_AUC in test [10] (setting [35]) and in test [10] (setting [24]) was 481.481 in each case. Also, the MCC26_AUC in test [11] (setting [36]) and in test [11] (setting [25]) was 500.723 each time. For the same molecule, the NIH3T3_AUC in test [12] (setting [37]) and in test [12] (setting [26]) was 473.017 each time. In test [13] (NPC library), this molecule gave a VN-MCC_Avg_AUC of 491.721. Further, the Control-VN-MCC in test [13] (setting [38]) is listed as -19.0227. The molecule also returned a Control_Avg_AUC in test [14] (NPC library) of 472.698. Besides, the MKL1_AUC in test [15] (setting [39]) and in test [15] ({}) was 416.714 throughout.
Turning to `C[C@@H]1CN(CCCn2c3ccccc3c3ccccc32)C[C@H](C)N1.Cl.Cl` [Rimcazole dihydrochloride], the UISO_AUC in test [1] (setting [27]) was 420.46. The MCC_Avg_AUC in test [2] (NPC library) came to 415.095. Also, the VP-MCC_Avg_AUC in test [3] (NPC library) is 379.963. For the same molecule, the Control-VP-MCC in [3] (setting [28]) was found to be 70.5333. In test [4] (setting [29]), this molecule returned an MKL2_AUC of 350.893. The WAGA_AUC in [5] (setting [30]) worked out at 396.152. This molecule also returned a CRL7250_AUC in test [6] (setting [31]) of 463.168. The molecule also gave an HACAT_AUC in [7] (setting [32]) of 421.634. The molecule also gave a Control-MCC in test [8] (setting [33]) of 35.4016. Also, the HEK293T_AUC in test [9] (setting [34]) is on record as 453.163. For the same molecule, the MCC13_AUC in test [10] (setting [35]) is given as 472.84. The molecule also had an MCC26_AUC in test [11] (setting [36]) of 457.379. Besides, the NIH3T3_AUC in [12] (setting [37]) is reported as 464.02. In addition, in test [13] (NPC library), the VN-MCC_Avg_AUC worked out at 450.226. Also, the Control-VN-MCC in test [13] (setting [38]) is listed as 0.27. Further, the Control_Avg_AUC in test [14] (NPC library) is listed as 450.496. In addition, the MKL1_AUC in [15] (setting [39]) was found to be 392.844.

The record behind these values is paper PMC11822212, “High-throughput screening identifies Aurora kinase B as a critical therapeutic target for Merkel cell carcinoma” (Nature Communications, 2025).
